Results reported in US4594345A, “Methylflavone-8-carboxylates” (Nippon Shinyaku Co. Ltd., priority 1982, dated 1986).

How the values were obtained:
[1] = test system: passive cutaneous anaphylaxis (PCA); experiment: Passive cutaneous anaphylaxis assay (PCA) in rats; type: in vivo, rat (Wister strain); conditions: oral 10 mg/kg, one hour before antigen; for inhibition in vivo at 10 mg/kg: Rattus norvegicus, po, 1 h, read-out: PCA Inhibition Ratio %
Protocol: (§1) The effect of the compounds (I) of the present invention in the treatment of asthma and allergic diseases were evaluated by a passive cutaneous anaphylaxis assay (PCA) in rats and by measuring anti-SRS-A action using ileus of guinea pigs.
(i) Antiserum abundant in homocytotropic antibody is prepared by the same method as Tada and Okumura did (cf. Journal of Immunology, volume 106, page 1002, […]). Thus, one mg (calculated as an amount of protein) of DNP-As (2,4-dinitrophenyl-coupled ascaris extract) prepared by methods of Strejan and Campbell (Journal of Immunology, volume 98, page 893, 1971) and of Eisen (Journal of American Chemical Society, volume 85, page 4593, 1953) and […] pertussis vaccine are administered to each paw of Wister strain rats (180 to 200 grams body weights) by dividing the dose by four. Five days later, 0.5 mg of DNP-As is adminstered into muscle of back. Eight days later from the initial immunization, blood is taken from descending aorta under anesthetizing with ether, the resulting serum is stored at -80° C. and is melted before use.
(ii) Effect of tested compounds is investigated as follows:
Anti-serum obtained by the method (i) is diluted with physiological saline solution double by double successively and 0.05 ml of each diluted solution is administered into back of Wister strain rats (140 to 160 grams body weight) subcutaneously. After 72 hours, a solution of 2 mg (calculated as protein) of DNP-As and 2.5 mg of Evand Blue dissolved in 1 ml of physiological saline solution is administered intravenously at a dose of 5 ml/kg. After thirty minutes from antigen solution administration, the animals are killed and diameters of blue spots appeared at the place where antiserum is administered are measured. The PCA test is conducted by the same method as already described using a diluted solutions of antiserum which always show 10 mm or more of spot diameters and the effect of the test compounds is judged. Thus, antiserum diluted solutions are administered to two places in back. Test compounds are administered orally at the dose of 10 mg/kg one hour before administration of antigen solution. From the skin of reacted parts of killed animals, leaked or emitted dyestuff is extracted [cf. Baeck and Steinetz: J. Pharmacol. Exp. Ther., Vol. 131, page 400 (1961)] and the amount of the dyestuff is measured. The inhibition ratio is calculated by the following expression: [formula] in which R' is an amount of dyestuff in the group treated with the test compounds and A is that in the control group.

SRS-A = experiment: Anti-SRS-A action (SRS-A induced shrinkage of guinea pig ileus); set-up: species or system guinea pig (Hartley strain male); conditions: treated five minutes before SRS-A (20 units), 5 min; for SRS-A Inhibition Ratio % 10^-6 M: 1 µM; for SRS-A Inhibition Ratio % 10^-7 M: 0.1 µM
Protocol: as §1
Anti-SRS-A action (An anti-action against slow reacting substance of anaphylaxie)
Hartley strain male guinea pigs (300 to 350 grams body weight) are killed and 1.0 to 1.5 cm of ileus is immediately excised from ileocecal parts and is suspended in 10 ml of Tyrode solution (95% O2 -5% CO2 saturation) containing 10^-7 g/ml of atropine and 10^-6 g/ml of pyrilamine. SRS-A (20 units) (the amount of SRS-A showing the same shrinkage as 5 ng of histamine is defined as one unit) prepared by using sensitized guinea pig lung is given to cause shrinkage there. Then antagonistic action of test compounds treated five minutes ago against the shrinkage is measured and recorded via isotonic transducer. [formula] in which A' is a height of shrinkage of SRS-A + test compound and A is that of SRS-A.

Structure (SMILES)	inhibition in vivo at 10 mg/kg [1]	SRS-A Inhibition Ratio % 10^-6 M (SRS-A)	SRS-A Inhibition Ratio % 10^-7 M (SRS-A)	PCA Inhibition Ratio % [1]
Cc1c(-c2ccc(C(C)C)cc2)oc2c(C(=O)O)cccc2c1=O [Example 7, 4'-Isopropyl-3-methylflavone-8-carboxylic acid]	19.7%	40.8%	19.0%	–
COC(=O)c1cccc2c(=O)c(C)c(-c3ccccc3)oc12 [Example 8, Methyl 3-methylflavone-8-carboxylate]	17.4%	64.9%	45.0%	–
CCN(CC)C(=O)c1cccc2c(=O)c(C)c(-c3ccccc3)oc12 [Example 9, 3-methylflavone-8-carboxylic acid N,N-diethylamide]	21.9%	64.7%	50.7%	–
CCN(CC)C(=O)c1cccc2c(=O)c(C)c(-c3ccccc3OC)oc12 [Example 12, 2'-methoxy-3-methylflavone-8-carboxylic acid N,N-diethylamide]	19.2%	52.4%	8.3%	–
CCNC(=O)c1cccc2c(=O)c(C)c(-c3ccc(OC)cc3)oc12 [Example 15, 4'-methoxy-3-methylflavoen-8-carboxylic acid N-ethylamide]	19%	41.9%	30.3%	–
CCOc1ccccc1-c1oc2c(C(=O)O)cccc2c(=O)c1C [Example 16, 2'-ethoxy-3-methylflavone-8-carboxylic acid]	18.6%	14.8%	10.4%	–
CCOC(=O)c1cccc2c(=O)c(C)c(-c3ccccc3OCC)oc12 [Example 17, ethyl 2'-ethoxy-3-methylflavone-8-carboxylate]	21.1%	72.5%	50.0%	–
CCNC(=O)c1cccc2c(=O)c(C)c(-c3ccccc3OCC)oc12 [Example 19, 2'-ethoxy-3-methylflavone-8-carboxylic acid N-ethylamide]	16%	50.0%	30.0%	–
CCOC(=O)c1cccc2c(=O)c(C)c(-c3ccccc3OC(C)C)oc12 [Example 21, ethyl 2'-isopropoxy-3-methylflavone-8-carboxylate]	17.8%	31.0%	19.8%	–
CCN(CC)C(=O)c1cccc2c(=O)c(C)c(-c3ccccc3OC(C)C)oc12 [Example 22, 2'-isopropoxy-3-methylflavone-8-carboxylic acid N,N-diethylamide]	16.1%	66.7%	40.0%	–
COc1cccc(-c2oc3c(C(=O)O)cccc3c(=O)c2C)c1OC [Example 23, 2',3'-dimethoxy-3-methylflavone-8-carboxylic acid]	19.5%	24.0%	6.2%	–
CCOC(=O)c1cccc2c(=O)c(C)c(-c3cccc(OC)c3OC)oc12 [Example 24, ethyl 2'.3'-dimethoxy-3-methylflavone-8-carboxylate]	20.4%	100%	18.2%	–
CCN(CC)C(=O)c1cccc2c(=O)c(C)c(-c3ccc(OC)cc3OC)oc12 [Example 28, 2',4'-dimethoxy-3-methylflavone-8-carboxylic acid N,N-diethylamide]	20.1%	63.2%	23.0%	–
CCN(CC)C(=O)c1cccc2c(=O)c(C)c(-c3ccc(OC)c(OC)c3OC)oc12 [Example 30, 2',3',4'-trimethoxy-3-methylflavone-8-carboxylic acid N,N-diethylamide]	16.3%	31.0%	18.0%	–
CCOC(=O)c1cccc2c(=O)c(C)c(-c3ccc(OC)c(OC)c3OC)oc12 [Example 31, ethyl 2',3',4'-trimethoxy-3-methylflaveone-8-carboxylate]	–	63.0%	20.4%	20.2%
CCOC(=O)c1cccc2c(=O)c(C)c(-c3ccccc3C)oc12 [Example 34, 2',3-dimethylflavone-8-carboxylic acid ethyl ester]	19.5%	71.4%	47.6%	–
CCOC(=O)c1cccc2c(=O)c(C)c(-c3ccccc3CC)oc12 [Example 37, ethyl 2'-ethyl-3-methylflavone-8-carboxylate]	20.5%	100%	25.0%	–
CCc1ccccc1-c1oc2c(C(=O)N(CC)CC)cccc2c(=O)c1C [Example 38, 2'-ethyl-3-methylflavone-8-carboxylic acid N,N-diethylamide]	16%	100%	29.6%	–
Cc1ccc(-c2oc3c(C(=O)O)cccc3c(=O)c2C)c(C)c1 [Example 39, 2',3,4'-trimethylflavone-8-carboxylic acid]	37%	5.3%	3.2%	–
CCOC(=O)c1cccc2c(=O)c(C)c(-c3ccc(C)cc3C)oc12 [Example 40, ethyl 2',3,4'-trimethylflavone-8-carboxylate]	17.3%	73.9%	8.1%	–
CCN(CC)C(=O)c1cccc2c(=O)c(C)c(-c3ccc(C)cc3C)oc12 [Example 41, 2',3,4'-trimethylflavone-8-carboxylic acid N,N-diethylamide]	31.4%	54.1%	23.4%	–
Cc1ccc(-c2oc3c(C(=O)OCCO)cccc3c(=O)c2C)c(C)c1 [Example 42, beta-hydroxyethyl 2'.3.4'-trimethylflavone-8-carboxylate]	19.8%	27.6%	10.3%	–
CCCCN(CC)C(=O)c1cccc2c(=O)c(C)c(-c3ccc(C)cc3C)oc12 [Example 43, 2',3,4'-trimethylflavone-8-carboxylic acid N-n-butyl-N-ethylamide]	18.8%	68.1%	23.4%	–
CCOC(=O)c1cccc2c(=O)c(C)c(-c3ccc(CC)cc3)oc12 [Example 45, ethyl 4'-ethyl-3-methylflavone-8-carboxylate]	19%	52.2%	16.0%	–
CCCCN(CCCC)C(=O)c1cccc2c(=O)c(C)c(-c3ccc(C(C)C)cc3)oc12 [Example 49, 4'-isopropyl-3-methylflavone-8-carboxylic acid N,N-di-n-butylamide]	20%	82.8%	55.6%	–
CCCCN(CC)C(=O)c1cccc2c(=O)c(C)c(-c3ccc(C(C)C)cc3)oc12 [Example 50, 4'-isopropyl-3-methylflavone-8-carboxylic acid N-n-butyl-N-ethylamide]	21.4%	100%	70.0%	–
CCNC(=O)c1cccc2c(=O)c(C)c(-c3ccc(C(C)C)cc3)oc12 [Example 51, 4'-isopropyl-3-methylflavone-8-carboxylic acid N-ethylamide]	19%	75.0%	17.5%	–
